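In this assay, cells in 96-well plates receive the compound at five concentrations for 48 hours. Endpoints are linearly interpolated between the surrounding concentrations. GI50 is the concentration that inhibits growth by half. TGI is the concentration that stops growth completely.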

Among the test systems are SK-OV-3 ovarian; COLO 205 colon; CAKI-1 renal; SNB-75 CNS; UO-31 renal; HOP-92 NSCLC; SF-539 CNS; NCI-H23 lung; HL-60(TB) leukemia; HS 578T breast.
Holding throughout (test): NCI anticancer screen, dose series, 48 h

As for `CC(=O)c1ccc2c(c1)c1cc(C(C)=O)ccc1n2CCNC(C)C`, the GI50 in the assay with SK-OV-3 ovarian is 1.25 µM; in the assay on COLO 205 colon it was 0.331 µM; in the assay on CAKI-1 renal, 0.304 µM; in the assay on SNB-75 CNS, 0.383 µM; in the assay on UO-31 renal, 0.2 µM; in the assay on HOP-92 NSCLC, 0.764 µM. The GI50 in the assay with SF-539 CNS was 0.478 µM; in the assay on NCI-H23 lung, 0.389 µM; with HL-60(TB) leukemia it was 0.362 µM; in the assay with HS 578T breast, 0.828 µM. Besides, the TGI came to 8.76 µM in the assay on SK-OV-3 ovarian; 1.6 µM in the assay with COLO 205 colon; 10.5 µM with CAKI-1 renal; 2.41 µM with SNB-75 CNS; 0.704 µM in the assay with UO-31 renal; 4.27 µM with HOP-92 NSCLC. Further, the TGI in the assay on SF-539 CNS stood at 2.02 µM; with NCI-H23 lung it was 2.41 µM; in the assay on HL-60(TB) leukemia, 2.67 µM; with HS 578T breast it was 4.77 µM.

Regarding `CCCCCCCCCCCCOC1C(CNC(=O)C2OC3OC(C)(C)OC3C2NC(=O)Nc2ccc(CC(=O)OC)cc2)OC2OC(C)(C)OC21` (centres undefined), the GI50 was more than 100 µM in the assay with SK-OV-3 ovarian; more than 72.5 µM in the assay on COLO 205 colon; 47 µM in the assay with CAKI-1 renal; more than 100 µM in the assay with SNB-75 CNS; more than 100 µM with UO-31 renal; more than 100 µM with HOP-92 NSCLC. Besides, the GI50 in the assay with SF-539 CNS, in the assay on NCI-H23 lung and in the assay on HS 578T breast was more than 100 µM each time. Further, the TGI in the assay on SK-OV-3 ovarian, in the assay on COLO 205 colon, with CAKI-1 renal, in the assay on SNB-75 CNS, with UO-31 renal and with HOP-92 NSCLC was more than 100 µM in each case. Further, the TGI was more than 100 µM in the assay with SF-539 CNS, more than 100 µM with NCI-H23 lung, more than 47.9 µM with HL-60(TB) leukemia and more than 100 µM in the assay on HS 578T breast.

For the compound `CCOC(=O)c1cc(C(=O)c2cc(OC)c(OC)c(OC)c2)n2ncccc12`, the GI50 in the assay with SK-OV-3 ovarian was 0.472 µM; in the assay with COLO 205 colon, 0.23 µM; in the assay with CAKI-1 renal, 0.374 µM; in the assay on SNB-75 CNS it was 0.175 µM; with UO-31 renal, 0.782 µM; in the assay on HOP-92 NSCLC it was 48.5 µM. Also, the GI50 in the assay on SF-539 CNS is 0.292 µM; with NCI-H23 lung, 0.707 µM; with HL-60(TB) leukemia, 0.251 µM; in the assay on HS 578T breast, 0.309 µM. Further, the TGI in the assay with SK-OV-3 ovarian is more than 95.1 µM; in the assay on COLO 205 colon, 1.33 µM; in the assay with CAKI-1 renal, more than 100 µM; in the assay with SNB-75 CNS it was 42.4 µM; in the assay on UO-31 renal, more than 100 µM; in the assay on HOP-92 NSCLC, more than 100 µM. For the same compound, the TGI is 2.28 µM in the assay on SF-539 CNS, more than 100 µM with NCI-H23 lung, 0.763 µM in the assay with HL-60(TB) leukemia and 26.1 µM with HS 578T breast.

In the case of `COc1ccc(/C=C(/C#N)C(N)=O)c(OC)c1`, the TGI in the assay with SK-OV-3 ovarian was more than 100 µM; in the assay with COLO 205 colon it was more than 100 µM; in the assay on CAKI-1 renal, more than 100 µM; in the assay on SNB-75 CNS, more than 100 µM; in the assay on UO-31 renal it was 26.8 µM; in the assay on HOP-92 NSCLC, more than 100 µM. Besides, the TGI in the assay on SF-539 CNS, in the assay with NCI-H23 lung, in the assay on HL-60(TB) leukemia and with HS 578T breast was more than 100 µM in each case.

Take `COc1ccc2c(c1)/C(=C\c1c(-c3cc(OC)ccc3OC)nc3sc(C)cn13)C(=O)N2C`: the GI50 is 28 µM with SK-OV-3 ovarian; 18.1 µM with COLO 205 colon; 18.3 µM in the assay on CAKI-1 renal; 6.68 µM in the assay on SNB-75 CNS; 16.8 µM in the assay on UO-31 renal; 4.33 µM in the assay on HOP-92 NSCLC. Moreover, the GI50 in the assay on SF-539 CNS is 32.9 µM; in the assay with NCI-H23 lung, 38.5 µM; in the assay on HL-60(TB) leukemia it was 18.3 µM; in the assay on HS 578T breast, 48.9 µM. Besides, the TGI in the assay with SK-OV-3 ovarian is more than 100 µM; with COLO 205 colon, 44.2 µM; in the assay with CAKI-1 renal it was 86 µM; in the assay with SNB-75 CNS, 45.9 µM; with UO-31 renal, more than 100 µM; with HOP-92 NSCLC it was 37.6 µM. For the same compound, the TGI is more than 100 µM in the assay with SF-539 CNS, more than 100 µM with NCI-H23 lung, 41.4 µM in the assay on HL-60(TB) leukemia and more than 100 µM in the assay on HS 578T breast.

For `CC(N)C(Cc1ccc(Cl)cc1)c1ccc(Cl)cc1` (centres undefined), the GI50 is 16.8 µM in the assay on SK-OV-3 ovarian; 1.89 µM in the assay on COLO 205 colon; 11.8 µM with CAKI-1 renal; 3.76 µM in the assay on SNB-75 CNS; 7.12 µM in the assay with UO-31 renal; 5.59 µM in the assay with HOP-92 NSCLC. Further, the GI50 was 13.3 µM in the assay with SF-539 CNS, 13.4 µM in the assay with NCI-H23 lung, 10.6 µM in the assay with HL-60(TB) leukemia and 13.8 µM with HS 578T breast. The TGI in the assay with SK-OV-3 ovarian worked out at 30.8 µM; in the assay on COLO 205 colon it was 3.97 µM; with CAKI-1 renal it was 24.1 µM; in the assay on SNB-75 CNS it was 18.3 µM; in the assay on UO-31 renal, 20.9 µM; with HOP-92 NSCLC, 19.9 µM. Moreover, the TGI in the assay with SF-539 CNS is 26.8 µM; in the assay on NCI-H23 lung it was 27.8 µM; in the assay on HL-60(TB) leukemia, 26.1 µM; in the assay with HS 578T breast, 39.7 µM.

Take `Cc1cc(S(=O)(=O)Nc2nc3ccccc3o2)c(SCc2ccccc2)cc1Cl`: the GI50 with SK-OV-3 ovarian is 34.3 µM; in the assay on COLO 205 colon, 22.1 µM; in the assay with CAKI-1 renal, 19.6 µM; in the assay on SNB-75 CNS, 38.6 µM; in the assay with UO-31 renal it was 32.9 µM; in the assay on HOP-92 NSCLC, 4.65 µM. Moreover, the GI50 in the assay on SF-539 CNS was 19.1 µM; with NCI-H23 lung, 19 µM; with HL-60(TB) leukemia, 36.9 µM; in the assay with HS 578T breast, 29.5 µM. Besides, the TGI in the assay with SK-OV-3 ovarian is more than 100 µM; in the assay with COLO 205 colon it was 51.1 µM; in the assay on CAKI-1 renal it was 47.3 µM; in the assay on SNB-75 CNS it was 90.8 µM; in the assay on UO-31 renal it was more than 100 µM; with HOP-92 NSCLC, 20.9 µM. In addition, the TGI in the assay with SF-539 CNS was 40.8 µM; in the assay on NCI-H23 lung, 40.3 µM; in the assay on HL-60(TB) leukemia it was more than 100 µM; in the assay with HS 578T breast it was 78.9 µM.

With `CCN(CCCN(C)C)Cc1cc(I)cc(C)c1O`, the GI50 was 35.3 µM in the assay on SK-OV-3 ovarian; 18.9 µM in the assay with COLO 205 colon; 18.5 µM with CAKI-1 renal; 16.1 µM with SNB-75 CNS; 35.6 µM with UO-31 renal; 10.8 µM in the assay with HOP-92 NSCLC. The GI50 is 14.8 µM with SF-539 CNS, 97.2 µM in the assay with NCI-H23 lung, 20 µM with HL-60(TB) leukemia and 15.3 µM in the assay on HS 578T breast. Further, the TGI with SK-OV-3 ovarian was more than 100 µM; in the assay with COLO 205 colon, 36.8 µM; in the assay with CAKI-1 renal, 39.3 µM; in the assay on SNB-75 CNS, 39.7 µM; in the assay with UO-31 renal, more than 100 µM; with HOP-92 NSCLC, 52.3 µM. Moreover, the TGI in the assay with SF-539 CNS was 29 µM; in the assay on NCI-H23 lung, more than 100 µM; in the assay on HL-60(TB) leukemia, 41.5 µM; in the assay on HS 578T breast, 33.1 µM.

The record behind these values is PubChem BioAssay (NCI).
